Measurements published in US20250122219A1 (priority 2023, published 2025).
Like-named read-outs stand apart in the source and are kept apart here.

Tests used:
[1] = Cytotoxicity assay in MT-4 cells; format: cell-based; conditions: human; uninfected MT-4 cells, 5 days incubation, Cell Titer Glo; read-out: MT4 CC50
Protocol: (§1) Compounds were tested in a high-throughput 384-well assay format for their ability to inhibit the replication of HIV-1 (IIIB) in MT-4 cells. Compounds were serially diluted (1.3) in DMSO on 384-well polypropylene plates and further diluted 200-fold into complete RPMI media (10% FBS, 1% P/S) using the Biotek Micro Flow and Labcyte ECHO acoustic dispenser. Each plate contained up to 8 test compounds, with negative (No Drug Control) and 5 μM AZT positive controls. MT-4 cells were pre-infected with 10 μL of either RPMI (mock-infected) or a fresh 1:250 dilution of HIV-1 IIIB concentrated virus stock. Infected and uninfected MT-4 cells were further diluted in complete RPMI media and added to each plate using a Micro Flow dispenser. After 5 days incubation in a humidified and temperature controlled incubator (37° C.), Cell Titer Glo (Promega) was added to the assay plates and chemiluminescence read using an Envision plate-reader.
Assays were performed as above except uninfected MT-4 cells were added to each well containing test compound. In addition, […] puromycin was added to the last column of each assay plate to assess a base level of cytotoxicity.

[2] = test system: HIV-1 (IIIB); test: Antiviral assay in MT-4 cells; format: cell-based
Protocol: as §1

[3] = Human immunodeficiency virus 1, MT4, 120 h, HIV-1 IIIB in MT-4 cells, 5 days incubation, Cell Titer Glo, read-out: MT4 EC50
[4] = Human immunodeficiency virus 1, IIIB, MT4, 120 h, read-out: MT4 EC50 (nM)

| SMILES | EC50 [2, 3] | CC50 at 5 days [1] | EC50 [2, 4] |
| --- | --- | --- | --- |
| COCCOCCOC(=O)OCOc1c2n(cc(C(=O)NCc3ccc(F)cc3F)c1=O)[C@@H]1CN(C2=O)[C@@H](C)CC[C@]12CC(C)=NO2 [Example 23, (((3′S,5S,7′R)-10′-((2,4-difluorobenzyl)carbamoyl)-3,3′-dimethyl-1′,11′-dioxo-1′,4′,5′,11′-tetrahydro-3′H,4H,7′H-spiro[isoxazole-5,6′-[2,7]methanopyrido[1,2-a][1,4]diazonin]-12′-yl)oxy)methyl (2-(2-methoxyethoxy)ethyl) carbonate] | 2.79 nM | 27300 nM | – |
| COC1=NO[C@@]2(CC[C@H](C)N3C[C@H]2n2cc(C(=O)NCc4ccc(F)cc4F)c(=O)c(OC(=O)/C=C/C(=O)O)c2C3=O)C1 [Example 25, (E)-4-(((3′S,5S,7′R)-10′-((2,4-difluorobenzyl)carbamoyl)-3-methoxy-3′-methyl-1′,11′-dioxo-1′,4′,5′,11′-tetrahydro-3′H,4H,7′H-spiro[isoxazole-5,6′-[2,7]methanopyrido[1,2-a][1,4]diazonin]-12′-yl)oxy)-4-oxobut-2-enoic acid] | – | 16200 nM | 1.9 nM |
| CCCCCCCCCCCCCCCC(=O)Oc1c2n(cc(C(=O)NCc3ccc(F)cc3F)c1=O)[C@@H]1CN(C2=O)[C@@H](C)CC[C@]12CC(OC)=NO2 [Example 27, (3′S,5S,7′R)-10′-((2,4-difluorobenzyl)carbamoyl)-3-methoxy-3′-methyl-1′,11′-dioxo-1′,4′,5′,11′-tetrahydro-3′H,4H,7′H-spiro[isoxazole-5,6′-[2,7]methanopyrido[1,2-a][1,4]diazonin]-12′-yl palmitate] | 4.5 nM | ≥ 50000 nM | – |
| COC1=NO[C@@]2(CC[C@H](C)N3C[C@H]2n2cc(C(=O)NCc4ccc(F)cc4F)c(=O)c(OC(=O)OC(C)C)c2C3=O)C1 [Example 30, (3′S,5S,7′R)-10′-((2,4-difluorobenzyl)carbamoyl)-3-methoxy-3′-methyl-1′,11′-dioxo-1′,4′,5′,11′-tetrahydro-3′H,4H,7′H-spiro[isoxazole-5,6′-[2,7]methanopyrido[1,2-a][1,4]diazonin]-12′-yl isopropyl carbonate] | – | 12600 nM | 1.3 nM |
| CCC(=O)Oc1c2n(cc(C(=O)NCc3ccc(F)cc3F)c1=O)[C@@H]1CN(C2=O)[C@@H](C)CC[C@]12CC(C)=NO2 [Example 33, (3′S,5S,7′R)-10′-((2,4-difluorobenzyl)carbamoyl)-3,3′-dimethyl-1′,11′-dioxo-1′,4′,5′,11′-tetrahydro-3′H,4H,7′H-spiro[isoxazole-5,6′-[2,7]methanopyrido[1,2-a][1,4]diazonin]-12′-yl propionate] | 1.42 nM | 22600 nM | – |
| CCCC(=O)Oc1c2n(cc(C(=O)NCc3ccc(F)cc3F)c1=O)[C@@H]1CN(C2=O)[C@@H](C)CC[C@]12CC(C)=NO2 [Example 35, (3′S,5S,7′R)-10′-((2,4-difluorobenzyl)carbamoyl)-3,3′-dimethyl-1′,11′-dioxo-1′,4′,5′,11′-tetrahydro-3′H,4H,7′H-spiro[isoxazole-5,6′-[2,7]methanopyrido[1,2-a][1,4]diazonin]-12′-yl butyrate] | 0.203 nM | 14100 nM | – |

More lines, main results first:

| EC50 [2, 3] | SMILES | CC50 at 5 days [1] | EC50 [2, 4] |
| --- | --- | --- | --- |
| 2.62 nM | CCCCCCCCCCCCCC(=O)Oc1c2n(cc(C(=O)NCc3ccc(F)cc3F)c1=O)[C@@H]1CN(C2=O)[C@@H](C)CC[C@]12CC(OC)=NO2 [Example 26, (3′S,5S,7′R)-10′-((2,4-difluorobenzyl)carbamoyl)-3-methoxy-3′-methyl-1′,11′-dioxo-1′,4′,5′,11′-tetrahydro-3′H,4H,7′H-spiro[isoxazole-5,6′-[2,7]methanopyrido[1,2-a][1,4]diazonin]-12′-yl tetradecanoate] | 22600 nM | – |
| 1.72 nM | COC1=NO[C@@]2(CC[C@H](C)N3C[C@H]2n2cc(C(=O)NCc4ccc(F)cc4F)c(=O)c(OC(C)=O)c2C3=O)C1 [Example 28, (3′S,5S,7′R)-10′-((2,4-difluorobenzyl)carbamoyl)-3-methoxy-3′-methyl-1′,11′-dioxo-1′,4′,5′,11′-tetrahydro-3′H,4H,7′H-spiro[isoxazole-5,6′-[2,7]methanopyrido[1,2-a][1,4]diazonin]-12′-yl acetate] | 11600 nM | – |
| 1.61 nM | CCCCC(=O)Oc1c2n(cc(C(=O)NCc3ccc(F)cc3F)c1=O)[C@@H]1CN(C2=O)[C@@H](C)CC[C@]12CC(OC)=NO2 [Example 29, (3′S,5S,7′R)-10′-((2,4-difluorobenzyl)carbamoyl)-3-methoxy-3′-methyl-1′,11′-dioxo-1′,4′,5′,11′-tetrahydro-3′H,4H,7′H-spiro[isoxazole-5,6′-[2,7]methanopyrido[1,2-a][1,4]diazonin]-12′-yl pentanoate] | 12300 nM | – |
| 2.39 nM | CCCC/C=C\CCCCCCCC(=O)Oc1c2n(cc(C(=O)NCc3ccc(F)cc3F)c1=O)[C@@H]1CN(C2=O)[C@@H](C)CC[C@]12CC(OC)=NO2 [Example 31, (3′S,5S,7′R)-10′-((2,4-difluorobenzyl)carbamoyl)-3-methoxy-3′-methyl-1′,11′-dioxo-1′,4′,5′,11′-tetrahydro-3′H,4H,7′H-spiro[isoxazole-5,6′-[2,7]methanopyrido[1,2-a][1,4]diazonin]-12′-yl (Z)-tetradec-9-enoate] | 15700 nM | – |
| 1.18 nM | CCC(=O)Oc1c2n(cc(C(=O)NCc3ccc(F)cc3F)c1=O)[C@@H]1CN(C2=O)[C@@H](C)CC[C@]12CC(OC)=NO2 [Example 32, (3′S,5S,7′R)-10′-((2,4-difluorobenzyl)carbamoyl)-3-methoxy-3′-methyl-1′,11′-dioxo-1′,4′,5′,11′-tetrahydro-3′H,4H,7′H-spiro[isoxazole-5,6′-[2,7]methanopyrido[1,2-a][1,4]diazonin]-12′-yl propionate] | 31700 nM | – |
| 0.218 nM | CCCC(=O)Oc1c2n(cc(C(=O)NCc3ccc(F)cc3F)c1=O)[C@@H]1CN(C2=O)[C@@H](C)CC[C@]12CC(OC)=NO2 [Example 34, (3′S,5S,7′R)-10′-((2,4-difluorobenzyl)carbamoyl)-3-methoxy-3′-methyl-1′,11′-dioxo-1′,4′,5′,11′-tetrahydro-3′H,4H,7′H-spiro[isoxazole-5,6′-[2,7]methanopyrido[1,2-a][1,4]diazonin]-12′-yl butyrate] | 16300 nM | – |
| 0.345 nM | CCCCCC(=O)Oc1c2n(cc(C(=O)NCc3ccc(F)cc3F)c1=O)[C@@H]1CN(C2=O)[C@@H](C)CC[C@]12CC(OC)=NO2 [Example 36, (3′S,5S,7′R)-10′-((2,4-difluorobenzyl)carbamoyl)-3-methoxy-3′-methyl-1′,11′-dioxo-1′,4′,5′,11′-tetrahydro-3′H,4H,7′H-spiro[isoxazole-5,6′-[2,7]methanopyrido[1,2-a][1,4]diazonin]-12′-yl hexanoate] | 19600 nM | – |
| 0.403 nM | CCCCCC(=O)Oc1c2n(cc(C(=O)NCc3ccc(F)cc3F)c1=O)[C@@H]1CN(C2=O)[C@@H](C)CC[C@]12CC(C)=NO2 [Example 37, (3′S,5S,7′R)-10′-((2,4-difluorobenzyl)carbamoyl)-3,3′-dimethyl-1′,11′-dioxo-1′,4′,5′,11′-tetrahydro-3′H,4H,7′H-spiro[isoxazole-5,6′-[2,7]methanopyrido[1,2-a][1,4]diazonin]-12′-yl hexanoate] | 17400 nM | – |
